Tested on: M-NFS-60 cells
Assay: M-NFS-60 cell in vitro assay (CCK, 48 h, M-CSF factor medium)
Format: cell-based
Conditions: M-NFS-60 cells; read-out: M-NFS-60cellassay IC50
Method in brief: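 IC50 values were fitted from CCK absorbance (450 nm, 2 h development) after 48 h compound treatment. Cells: M-NFS-60, seeded 2000/well and rested 4 h, grown in medium carrying 25 ng/ml M-CSF factor plus 10% serum; compounds serially diluted in DMSO.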

Cc1ccc(F)c(NC(=O)c2cccc3c2CC[C@@H]3N(C)c2cnc3cnn(C)c3c2)c1 [Compound 80y] and Cc1cc(NC(=O)c2cccc3c2CC[C@@H]3N(C)c2cnc3cnn(C)c3c2)ccc1F [Compound 80q] cannot be ordered by IC50: less than 50 nM for the first, less than 50 nM for the second.

First: Cc1cccc(C(=O)Nc2cccc3c2CC[C@@H]3Nc2cncc(N(C)CCN(C)C)n2)c1 [Compound 32, (S)—N-(1-((6-((2-(dimethylamino)ethyl)(methyl)amino)pyrazin-2-yl)amino)-2,3-dihydro-1H-inden-4-yl)-3-methylbenzamide]
Second: Cc1cccc(C(=O)Nc2cccc3c2CC[C@@H]3Nc2cncc(Cl)n2)c1 [Compound 30, (S)—N-(1-((6-chloropyrazin-2-yl)amino)-2,3-dihydro-1H-inden-4-yl)-3-methylbenzamide]
The IC50 of the first is higher: greater than 500 nM for the first, less than 50 nM for the second.

First: CN(C)Cc1ccc(NC(=O)c2cccc3c2CC[C@@H]3N(C)c2cncc(-c3cnn(C)c3)c2)cc1 [Compound 22f]
Second: CN(c1cncc(-c2cnn(C)c2)c1)[C@H]1CCc2c(C(=O)Nc3ccc(C(F)(F)F)cc3)cccc21 [Compound 20, (S)-1-(methyl (5-(1-methyl-1H-pyrazol-4-yl)pyridin-3-yl)amino)-N-(4-(trifluoromethyl)phenyl)-2,3-dihydro-1H-indene-4-carboxamide]
The IC50 of the first is higher: greater than 500 nM for the first, less than 50 nM for the second. The second is the more potent here.

First: COc1cccc(C(=O)Nc2cccc3c2OCCC3Oc2cc(-c3cnn(C)c3)cnc2N)c1 (centres unmarked) [Compound 2c]
Second: COc1cccc(C(=O)Nc2cccc3c2CC[C@@H]3Oc2cc(-c3cnn(C)c3)cnc2N)c1 [Compound 3b]
The IC50 of the first is higher: 200 to 500 nM for the first, less than 50 nM for the second. The second is the more potent here.

Cn1ncc2ncc(N[C@H]3CCc4c(Nc5cc(C(C)(C)C)on5)cccc43)cc21 [Compound 91a] and Cn1ncc2ncc(N[C@H]3CCc4c(Nc5cc(C(C)(C)CO)on5)cccc43)cc21 [Compound 91d] cannot be ordered by IC50: less than 50 nM for the first, less than 50 nM for the second.

Cn1cc2ncc(O[C@H]3CCc4c(C(=O)Nc5ccccc5F)cccc43)cc2n1 [Compound 76au] and Cc1ccc(F)c(NC(=O)c2cccc3c2CC[C@@H]3Oc2cnc3cn(C)nc3c2)c1 [Compound 76ax] cannot be ordered by IC50: less than 50 nM for the first, less than 50 nM for the second.

Compared with CN(c1cncc(-c2cnn(C)c2)c1)[C@H]1CCc2c(C(=O)Nc3cccc(C(F)(F)F)c3)cccc21 [Compound 22b], CN1CCc2cc(NC(=O)c3cccc4c3CC[C@@H]4N(C)c3cncc(-c4cnn(C)c4)c3)ccc2C1 [Compound 22e] is higher in IC50: less than 50 nM for the first, 200 to 500 nM for the second. The first is the more potent here.

First: Cn1cc(-c2cnc(N)c(O[C@H]3CCc4c(Nc5cc(C(C)(C)C)on5)cccc43)c2)cn1 [Compound 68, (S)—N-(1-((2-amino-5-(1-methyl-1H-pyrazol-4-yl)pyridin-3-yl)oxy)-2,3-dihydro-1H-inden-4-yl)-5-(tert-butyl) isoxazol-3-amine]
Second: COc1cccc(C(=O)Nc2cccc3c2CCC3Oc2cc(-c3cnn(C)c3)cnc2N)c1 (centres unmarked) [Compound 1, N-(1-((2-amino-5-(1-methyl-1H-pyrazol-4-yl)pyridin-3-yl)oxy)-2,3-dihydro-1H-inden-4-yl)-3-methoxybenzamide]
The IC50 of the first is higher: 200 to 500 nM for the first, 50 to 200 nM for the second. The second is the more potent here.

Cn1cc2ncc(O[C@H]3CCc4c(C(=O)Nc5cccc(C6CC6)c5F)cccc43)cc2n1 [Compound 76bb] and Cn1cc2ncc(O[C@H]3CCc4c(C(=O)Nc5cccc(C6CC6)c5)cccc43)cc2n1 [Compound 76af] cannot be ordered by IC50: less than 50 nM for the first, less than 50 nM for the second.

First: Cn1cc2ncc(N[C@H]3CCc4c(Nc5noc(C(F)(F)F)n5)cccc43)cc2n1 [Compound 93p]
Second: Cn1cc2ncc(N[C@H]3CCc4c(Nc5noc(C67CC(F)(C6)C7)n5)cccc43)cc2n1 [Compound 93r]
The IC50 of the first is higher: greater than 500 nM for the first, less than 50 nM for the second.

Compared with CC(C)c1cnc(Nc2cccc3c2CC[C@@H]3Nc2cncc(-c3cnn(C)c3)n2)s1 [Compound 37, (S)—N^4-(5-isopropylthiazol-2-yl)-N^1-(6-(1-methyl-1H-pyrazol-4-yl)pyrazin-2-yl)-2,3-dihydro-1H-indene-1,4-diamine], Cn1cc(-c2cncc(N[C@H]3CCc4c(NCc5cccc(Cl)c5)cccc43)n2)cn1 [Compound 60c] is higher in IC50: 50 to 200 nM for the first, greater than 500 nM for the second. The first is the more potent here.

Cc1cc(NC(=O)c2cccc3c2CC[C@@H]3Oc2cnc3cn(C)nc3c2)ccc1F [Compound 76ar] and Cn1cc2ncc(O[C@H]3CCc4c(C(=O)Nc5ccc(F)c(Cl)c5)cccc43)cc2n1 [Compound 76as] cannot be ordered by IC50: less than 50 nM for the first, less than 50 nM for the second.

Compared with Cc1ccc(F)c(NC(=O)c2cccc3c2CC[C@@H]3Nc2cncc(-c3cnn(C)c3)c2)c1 [Compound 14ac], Cc1cccc(C(=O)Nc2c(F)ccc3c2CC[C@@H]3Nc2cncc(-c3cnn(C)c3)c2)c1 (stereo in doubt) [Compound 43, N-(5-fluoro-1-((5-(1-methyl-1H-pyrazol-4-yl)pyridin-3-yl)amino)-2,3-dihydro-1H-inden-4-yl)-3-methylbenzamide] is higher in IC50: less than 50 nM for the first, 200 to 500 nM for the second.

First: Cn1ncc2ncc(N[C@H]3CCc4c(Nc5nc(C(C)(C)C)co5)cccc43)cc21 [Compound 91g]
Second: Cn1ncc2ncc(N[C@H]3CCc4c(Nc5ncc(C(C)(C)C)s5)cccc43)cc21 [Compound 91f]
The IC50 of the first is higher: 50 to 200 nM for the first, less than 50 nM for the second. The second is the more potent here.

Compared with Cc1cccc(NC(=O)c2cccc3c2CC[C@@H]3Nc2cncc(N3CCN(C)CC3)n2)c1 [Compound 34, (S)-1-((6-(4-methylpiperazin-1-yl)pyrazin-2-yl)amino)-N-(m-tolyl)-2,3-dihydro-1H-indene-4-carboxamide], Cn1cc(-c2cncc(O[C@H]3CCc4c(C(=O)Nc5cccc(CN6CCC6)c5)cccc43)c2)cn1 [Compound 19s] is higher in IC50: 50 to 200 nM for the first, 200 to 500 nM for the second.

CC(C)(C)c1nnc(Nc2cccc3c2CC[C@@H]3Nc2cncc(Cl)c2)s1 [Compound 42i] and CC(C)c1cc(Nc2cccc3c2CC[C@@H]3Nc2cncc(Cl)c2)no1 [Compound 42b] fall in the same range of IC50: 50 to 200 nM for the first, 50 to 200 nM for the second.

Cn1cc(-c2cncc(N[C@H]3CCc4c(NC(=O)c5cccc(CN6CCCC6)c5)cccc43)c2)cn1 [Compound 28b] and Cn1cc(-c2cnc(N)c(O[C@H]3CCc4c(NC(=O)c5cccc(CN6CCCCC6)c5)cccc43)c2)cn1 [Compound 3h] cannot be ordered by IC50: greater than 500 nM for the first, greater than 500 nM for the second.

Going from Cn1cc(-c2cncc(N[C@H]3CCc4c3ccc(F)c4C(=O)Nc3cccc(C4CC4)c3)c2)cn1 [Compound 51a] to CNCc1cccc(NC(=O)c2cccc3c2CC[C@@H]3Oc2cncc(-c3cnn(C)c3)c2)c1 [Compound 19l], the IC50 rises from less than 50 nM to greater than 500 nM. The first is the more potent here.

CN(c1cnc2cnn(C)c2c1)[C@H]1CCc2c(C(=O)Nc3nn(C)c4ccccc34)cccc21 [Compound 80h] and CN(c1cnc2cnn(C)c2c1)[C@H]1CCc2c(C(=O)Nc3ccc(F)c(Cl)c3)cccc21 [Compound 80r] cannot be ordered by IC50: less than 50 nM for the first, less than 50 nM for the second.

Cn1ncc2ncc(N[C@H]3CCc4c(Nc5cc(C(C)(C)C(F)(F)F)on5)cccc43)nc21 [Compound 87, (S)—N′-(1-methyl-1H-pyrazolo[3,4-b]pyrazin-6-yl)-N^4-(5-(1,1,1-trifluoro-2-methylpropan-2-yl)isoxazol-3-yl)-2,3-dihydro-1H-indene-1,4-diamine] and COCC(C)(C)c1cc(Nc2cccc3c2CC[C@@H]3Nc2cnc3cnn(C)c3c2)no1 [Compound 91c] cannot be ordered by IC50: less than 50 nM for the first, less than 50 nM for the second.

Cn1cc2ncc(N[C@H]3CCc4c(Nc5cc(C6(C(F)(F)F)CCCC6)on5)cccc43)cc2n1 [Compound 91o] and Cn1cc2ncc(N[C@H]3CCc4c(Nc5cc(C6(C(F)(F)F)CC6)on5)cccc43)cc2n1 [Compound 91m] cannot be ordered by IC50: less than 50 nM for the first, less than 50 nM for the second.

First: Cn1cc(-c2cncc(N[C@H]3CCc4c(Nc5cc(C(C)(C)C)no5)cccc43)c2)cn1 [Compound 42n]
Second: Cn1cc2ncc(N[C@H]3CCc4c(Nc5nc(C(C)(C)C)cs5)cccc43)cc2n1 [Compound 91i]
The IC50 of the first is higher: 50 to 200 nM for the first, less than 50 nM for the second.

Cc1cc(NC(=O)c2cccc3c2CC[C@@H]3N(C)c2cnc3cn(C)nc3c2)ccc1F [Compound 80s] and CN(c1cnc2cn(C)nc2c1)[C@H]1CCc2c(C(=O)Nc3ccc(F)c(Cl)c3)cccc21 [Compound 80t] cannot be ordered by IC50: less than 50 nM for the first, less than 50 nM for the second.

Cn1ncc2ncc(O[C@H]3CCc4c(NC(=O)c5cccc(C6CC6)c5)cccc43)cc21 [Compound 77, (S)-3-cyclopropyl-N-(1-((1-methyl-1H-pyrazolo[4,3-b]pyridin-6-yl)oxy)-2,3-dihydro-1H-inden-4-yl)benzamide] and COc1ccc(F)c(NC(=O)c2cccc3c2CC[C@@H]3Oc2cnc3cnn(C)c3c2)c1 [Compound 76ag] fall in the same range of IC50: 50 to 200 nM for the first, 50 to 200 nM for the second.

First: Cn1cc2ncc(N[C@H]3CCc4c(Nc5noc(C6(CO)CC6)n5)cccc43)cc2n1 [Compound 93e]
Second: Cn1cc2ncc(N[C@H]3CCc4c(Nc5cc(C6(C)CCCC6)on5)cccc43)cc2n1 [Compound 91l]
The IC50 of the first is higher: 50 to 200 nM for the first, less than 50 nM for the second. The second is the more potent here.

CN1CCc2nc(NC(=O)c3cccc4c3CC[C@@H]4N(C)c3cnc4cnn(C)c4c3)sc2C1 [Compound 80w] and Cn1cc(-c2cnc(N)c(O[C@H]3CCc4c(C(=O)Nc5cccc(CN6CCCCC6)c5)cccc43)c2)cn1 [Compound 5b] fall in the same range of IC50: 50 to 200 nM for the first, 50 to 200 nM for the second.

Going from Cn1cc(-c2cncc(N[C@H]3CCc4c(NC(=O)c5cccc(C(F)(F)F)c5F)cccc43)n2)cn1 [Compound 25c] to Cn1cc(-c2cncc(N[C@H]3CCc4c(NC(=O)NCC5CC5)cccc43)n2)cn1 [Compound 65d], the IC50 rises from less than 50 nM to greater than 500 nM.

First: Cc1cc(C(=O)Nc2cccc3c2CC[C@@H]3Nc2cc(-c3cnn(C)c3)cnc2N)ccc1F [Compound 6, (S)—N-(1-((2-amino-5-(1-methyl-1H-pyrazol-4-yl)pyridin-3-yl)amino)-2,3-dihydro-1H-inden-4-yl)-4-fluoro-3-methylbenzamide]
Second: Cc1ncc(-c2cnn(C)c2)cc1O[C@H]1CCc2c(NC(=O)c3ccc(C(F)(F)F)cc3)cccc21 [Compound 72, (S)—N-(1-((2-methyl-5-(1-methyl-1H-pyrazol-4-yl)pyridin-3-yl)oxy)-2,3-dihydro-1H-inden-4-yl)-4-(trifluoromethyl)benzamide]
The IC50 of the first is lower: 50 to 200 nM for the first, greater than 500 nM for the second.

Cc1cc(NC(=O)c2cccc3c2CC[C@@H]3Oc2cncc(-c3cnn(C)c3)c2)ccn1 [Compound 19p] and Cn1cc(-c2cncc(O[C@H]3CCc4c(C(=O)Nc5ccc6c(c5)OCCO6)cccc43)c2)cn1 [Compound 19n] cannot be ordered by IC50: less than 50 nM for the first, less than 50 nM for the second.

Work on Cn1cc(-c2cncc(N[C@H]3CCc4c(NC(=O)NC5CCC(F)(F)CC5)cccc43)n2)cn1 [Compound 65b] yielded an IC50 of 50 to 200 nM.

— patent US20260125359A1, “HETEROARYL COMPOUNDS AS MULTI-TARGET PROTEIN KINASE INHIBITORS” (FUJIAN HAIXI PHARMACEUTICALS CO., LTD., priority 2023, published 2026)
